14 compounds from US12594292B2, “Antiviral prodrugs, intermediate-and long-acting formulations and methods” (priority 2022, dated 2026) can be followed below.

Read-outs that look alike come from different tables or passages of the source.

For one series, the system named is Hep-2 cells. Briefly: Cell viability assay for the RSV table (CC50). It is filed as cell-based. Conditions: Hep-2 cells; read-out: CC50.
The next series concerns HCoV-229E. It is filed as cell-based, human Coronavirus 229E.
Another series deals with TMPRSS2-Vero cells. Kind of series: Cytotoxicity in TMPRSS2-Vero cells, nuclei count (Example 6). The series is classed as cell-based. As to conditions: TMPRSS2-Vero cells; read-out: CC50.
Series [1] has as its system SARS-CoV-2. Briefly: SARS-CoV-2 infection assay in TMPRSS2-Vero cells, nucleocapsid immunofluorescence (Example 6). It is filed as cell-based. As to conditions: MOI 0.01, 32 hours.
The next series has as its system Calu-3 cells. Briefly: Cytotoxicity in Calu-3 cells, nuclei count or CellTiter-Glo (Example 6). Conditions: for select compounds up to 100 μM by CellTiter-Glo. On the technique in general: ATP-based viability assays read luminescence as a measure of living cells.
A further series relates to SRV A2 strain of RSV. Briefly: RSV infection in Hep-2 cells, CPE reduction. The series is classed as cell-based, respiratory syncytial virus. As to conditions: RSV A2 in Hep-2 cells, 72 to 96 hours. The method, then:
Methods: The SRV A2 strain of RSV was obtained from the ATCC. Ten thousand Hep-2 cells were seeded into each well of a 96-well plate in EMEM with 10% fetal bovine serum and 1% penicillin and streptomycin. Each well was inoculated with 100 TCID50 of virus. Two hours later wells were washed once with medium and serial four-fold dilutions of candidate antiviral drugs were added.

The subject of the next series is Huh7.5 cells. Kind of series: Cytotoxicity in Huh7.5 cells, nuclei count (Example 6). The series is classed as cell-based, human. Conditions: Huh7.5 cells; read-out: CC50.
For series [2], the system named is SARS-CoV-2. Briefly: SARS-CoV-2 infection assay in Huh7.5 cells, nucleocapsid immunofluorescence (Example 6). The series is classed as cell-based. As to conditions: MOI 0.1, 48 hours.
The test system of a further series is human PBMCs. Kind of series: Cytotoxicity (CC50) in human PBMCs. The series is classed as cell-based.
In another series the test system is HFF cells. Kind of series: Persistence of TFVpp in HFF cells after a 3 day exposure. From the text: HFF cells were exposed to 1 micromolar drug for 3 days. At days 0, 1, 2, 4, 7, 14, 21, and 28, cells were trypsinized, counted, and processed for LC/MS measurement of TFVpp. Data were expressed at ftg/cell. nm=not meaningful; ftg—gemtogram.
For series [3], the system named is HIV-1. Conditions: for EC50: HIV infected human PBMCs.
Method: (§1) Antiviral activities were determined in HIV infected human PBMCs.
The nature of series [4]: Cytotoxicity (CC50) in human PBMCs. Conditions: human PBMCs. It is filed as cell-based.
Series [5] concerns HIV-1. Briefly: microbe, parasite or virus in culture. As to conditions: Human immunodeficiency virus 1, PBMC.
Method: as §1
Series [6] concerns SARS-CoV-2. Kind of series: SARS-CoV-2 infection assay in Calu-3 cells, nucleocapsid immunofluorescence (Example 6). As to conditions: MOI 0.01, 44 hour.
Another series deals with Calu 3. Kind of series: Antiviral evaluation of cyanobenzyl analogs, Calu 3. It is filed as cell-based. As to conditions: Calu 3.
The subject of a further series is Huh7.5. Briefly: Antiviral evaluation of cyanobenzyl analogs, Huh7.5. The series is classed as cell-based.
[7] abbreviates: variation of the diester substituent of ODE-TFV, read-out: CC50.
The mark [8] stands for this setting: HFF cells, 1 micromolar drug for 3 days.
The mark [9] stands for this setting: variation of the diester substituent of ODE-TFV.

What is called CC50 is the concentration giving 50% cytotoxicity. A word on the EC50: it is the midpoint of the concentration-response curve. In general, EC90 refers to the concentration needed for an effect of 90%. As for `CCCCCCCC/C=C\CCCCCCCCOC[C@H](COP(=O)(O)OC[C@H]1O[C@@](C#N)(c2ccc3c(N)ncnn23)[C@H](O)[C@@H]1O)OCc1ccc(OC)c(F)c1` [Compound 15m, 1-O-Oleyl-2-O-(3-fluoro, 4-methoxybenzyl)-sn-glyceryl-phospho-RVn], the CC50 is 12500 nM in the series on Hep-2 cells; greater than 20000 nM in the series with TMPRSS2-Vero cells; greater than 50000 nM in the series on MRC-5 cells; 58500 ± 6280 nM in the series on Calu-3 cells; greater than 20000 nM in the series with Huh7.5 cells. The EC50 in the series on HCoV-229E is 60 ± 14 nM; with SARS-CoV-2 [1] it was 296 nM; in the series with SRV A2 strain of RSV, 5 nM; in the series on SARS-CoV-2 [2], 54 nM. Moreover, the EC90 with HCoV-229E came out at 110 ± 20 nM; in the series on SARS-CoV-2 [1], 524 nM; in the series with SRV A2 strain of RSV, 9.4 nM; in the series with SARS-CoV-2 [2], 102 nM.

Consider `CCCCCCCCCCCCCCCCCCOCCOP(=O)(CO[C@H](C)Cn1cnc2c(N)ncnc21)Oc1ccccc1` (some centres unmarked) [ODE-Ph-TFV], for which, in the series on human PBMCs (setting [7]), the CC50 turned out to be 3930 nM. In addition, in the series on HFF cells (setting [8]), the “Cmax of TFVpp” value is recorded as 8.1 ftg/cell, the “T1/2 of TFVpp” value was found to be 3.0, the “T1/10 of TFVpp” value is 15.1 and the “Tmax of TFVpp” value amounted to 24 h. Also, in the series on HIV-1 [3] (setting [9]), the “Selectivity Index” value is on record as 1640 and the EC50 worked out at 2.4 nM.

`CCCCCCCCCCCCCCCCCCOCCOP(=O)(CO[C@H](C)Cn1cnc2c(N)ncnc21)OCC` (some centres unmarked) [ODE-Et-TFV]: the CC50 with human PBMCs (setting [7]) was found to be 5360 nM. In addition, in the series with HFF cells (setting [8]), the “Cmax of TFVpp” value worked out at 0.91 ftg/cell and the “Tmax of TFVpp” value is 0 h. Also, in the series with HIV-1 [3] (setting [9]), the “Selectivity Index” value is 95 and the half-maximal effective concentration (EC50) amounted to 57 nM.

For `CCCCCCCCCCCCCCCCCCOCCOP(=O)(CO[C@H](C)Cn1cnc2c(N)ncnc21)OCc1ccc(C)cc1` (some centres unmarked) [ODE-4MeBN-TFV], the CC50 with human PBMCs is 3410 nM. Moreover, in the series on HFF cells, the “T1/2 of TFVpp” value stood at 3.1 and the “Tmax of TFVpp” value came out at 0 h. Further, in the series with HIV-1 [3] (setting [9]), the “Selectivity Index” value was found to be 1620 and the EC50 worked out at 2.1 nM.

In series [4], `CCCCCCCC/C=C\CCCCCCCCOCCOP(=O)(O)CO[C@H](C)Cn1cnc2c(N)nc(N)nc21` [OLE-PMPDAP, Oleyloxyethyl 9-(R)-[(2-phosphonomethoxy)propyl]-2,6-diaminopurine] gave a cytotoxic concentration (CC50) of 15000 ± 12300 nM. In addition, the Selectivity Index in the series on HIV-1 [3] (CC50/EC50) is 150,000. In addition, the EC50 in the series with HIV-1 [5] was determined as 0.1 ± 0.03 nM.

For `CCCCCCCCCCCCCCCCCCOCCOP(=O)(O)CO[C@H](C)Cn1cnc2c(N)nc(N)nc21` [ODE-PMPDAP], the CC50 in the series on human PBMCs (human PBMCs, read-out: CC50) is 7000 ± 7100 nM. Besides, the Selectivity Index with HIV-1 [3] (CC50/EC50) is recorded as 77,700. Also, a half-maximal effect with HIV-1 [3] (EC50) was put at 0.09 ± 0.05 nM.

For the compound `CCCCCCCCCCCCCCCCCCOCCOP(=O)(O)OC[C@H]1O[C@@H](n2cc(F)c(N)nc2=O)CS1` [ODE-P-Emtricitabine, Octadecyloxyethyl-phospho-emtricitabine], half-maximal cytotoxicity in [4] (CC50) was put at 35600 ± 12900 nM. In the series on HIV-1 [3] (CC50/EC50), the Selectivity Index worked out at 3708. The compound further registered an EC50 in the series on HIV-1 [5] of 9.6 ± 3.1 nM.

On to `CCCCCCCCCCCCCCCCOC[C@H](COP(=O)(O)OC[C@H]1O[C@@](C#N)(c2ccc3c(N)ncnn23)[C@H](O)[C@@H]1O)OCc1ccc(OC)c(F)c1` [Compound 15c, 1-O-Hexadecyl-2-O-(3-fluoro, 4-methoxybenzyl)-sn-glyceryl-phospho-RVn], for which the CC50 is 20600 nM with Hep-2 cells; greater than 20000 nM in the series on TMPRSS2-Vero cells; greater than 50000 nM in the series on MRC-5 cells; 75600 ± 3960 nM with Calu-3 cells; greater than 20000 nM with Huh7.5 cells. Moreover, the concentration giving a half-maximal response (EC50) with HCoV-229E stood at 360 ± 54 nM; with SARS-CoV-2 [1], 397 nM; with SARS-CoV-2 [6], 51 ± 6 nM; in the series with SRV A2 strain of RSV, 34 nM; in the series with SARS-CoV-2 [2] it was 49 nM. The EC90 in the series on HCoV-229E came to 1120 ± 100 nM; in the series on SARS-CoV-2 [1] it was 869 nM; in the series with SARS-CoV-2 [6], 221 ± 58 nM; in the series on SRV A2 strain of RSV, 68 nM; with SARS-CoV-2 [2] it was 113 nM.

`CCCCCCCCCCCCCCCCCCOC[C@H](COP(=O)(O)OC[C@H]1O[C@@](C#N)(c2ccc3c(N)ncnn23)[C@@H](O)C1O)OCc1ccc(C#N)cc1` (some centres unmarked) [OD(4-CN-Bn)G-P-RVn, 1-O-Octadecyl-2-O-(4-cyanobenzyl)-sn-glyceryl-phospho-RVn]: the values for the SI in the series on Calu 3 and in the series with Huh7.5 were 1400 and 1966, respectively. In addition, the EC50 is 43 ± 13 nM with Calu 3 (read-out: EC50) and 24 ± 2 nM in the series on Huh7.5 (read-out: EC50). The EC90 was determined as 82 ± 22 nM with Calu 3 (read-out: EC90) and 70 ± 10 nM with Huh7.5 (read-out: EC90).

Regarding `CCCCCCCCCCCCCCCCCCOCCOP(=O)(CO[C@H](C)Cn1cnc2c(N)ncnc21)OCc1ccccc1` (some centres unmarked) [ODE-Bn-TFV, Octadecyloxyethyl benzyl tenofovir], the midpoint of cytotoxicity in series [4], the CC50, lay at 8720 nM. In the series on HIV-1 [3] (CC50/EC50), this compound yielded a Selectivity Index of 5130. This compound registered an EC50 in the series with HIV-1 [5] of 1.7 ± 1.5 nM.

In [4], `CCCCCCCCCCCCCCCCCCOCCOP(=O)(OCc1ccccc1)OC[C@H]1O[C@@H](n2cc(F)c(N)nc2=O)CS1` (some centres unmarked) [ODE-Bn-P-Emtricitabine, Octadecyloxyethyl benzyl-phospho-emtricitabine] gave a CC50 of 54700 ± 45300 nM. The compound further displayed a Selectivity Index in the series on HIV-1 [3] (CC50/EC50) of 2989. The same compound had an EC50 in the series with HIV-1 [5] of 18.3 ± 8.7 nM.

As to `CCCCCCCCCCCCCCCCCCOCCOP(=O)(CO[C@H](C)Cn1cnc2c(N)ncnc21)OC` (some centres unmarked) [ODE-Me-TFV], the CC50 with human PBMCs (setting [7]) was determined as 2980 nM. In the series on HFF cells (setting [8]), the “Cmax of TFVpp” value came to 9.3 ftg/cell, the “T1/2 of TFVpp” value was found to be 2.0, the “T1/10 of TFVpp” value turned out to be 11.3 and the “Tmax of TFVpp” value was found to be 0 h. Moreover, in the series on HIV-1 [3] (setting [9]), the “Selectivity Index” value was determined as 677 and the midpoint of the response, the EC50, lay at 5.2 nM.

For the compound `CCCCCCCCCCCCCCCCCCOC[C@H](COP(=O)(O)OC[C@H]1O[C@@](C#N)(c2ccc3c(N)ncnn23)[C@H](O)[C@@H]1O)OCc1ccc(OC)c(F)c1` [Compound 15j, 1-O-Octadecyl-2-O-(3-fluoro-4-methoxy-benzyl)-sn-glyceryl-phospho-RVn], the CC50 is 9600 nM in the series with Hep-2 cells; greater than 20000 nM with TMPRSS2-Vero cells; greater than 50000 nM in the series on MRC-5 cells; 50600 ± 5420 nM in the series on Calu-3 cells; greater than 20000 nM in the series on Huh7.5 cells. The concentration for a half-maximal effect (EC50) was 74 ± 10 nM in the series on HCoV-229E, 174 nM with SARS-CoV-2 [1], 10 nM in the series with SRV A2 strain of RSV and 56 nM in the series on SARS-CoV-2 [2]. Besides, the EC90 was determined as 170 ± 14 nM with HCoV-229E, 341 nM in the series on SARS-CoV-2 [1], 19 nM with SRV A2 strain of RSV and 222 nM in the series on SARS-CoV-2 [2].

For the compound `CCCCCCCCCCCCCCCCCCOCCOP(=O)(CO[C@H](C)Cn1cnc2c(N)ncnc21)OCc1cccc(C)c1` (some centres unmarked) [3-methyl benzyl], the CC50 with human PBMCs (setting [7]) is 3860 nM. For the same compound, in the series with HIV-1 [3] (setting [9]), the “Selectivity Index” value was found to be 1210 and the 50% effective concentration (EC50) turned out to be 3.2 nM.
